Measurements: US20220296590A1, “STEREOISOMERS OF THE COMPOUND 3-(BENZO[D][1,3]DIOXOL-5-YL)-7-(1-HYDROXYPROPAN-2-YL)-1-(1H-INDOL-3-YL)-6,7-DIHYDRO-3H-OXAZOL[3,4-A]PYRAZINE-5,8-DIONE AND USE THEREOF AS AN ANTITUMOR AGENT AND PHOSPHODIESTERASE ENZYME INHIBITOR” (BIOLAB SANUS FARMACEUTICA LTDA, priority 2019, published 2022)

Legend:
PDE5A1 enzyme = target: T1, PDE5A1 enzyme (Homo sapiens, UniProt O76074); assay: In vitro inhibition of human phosphodiesterase enzyme 5 (BPS Bioscience PDE5A1 assay kit, fluorescence polarization); type: biochemical
T1 construct: purchased BPS Bioscience 60350
Experimental: The evaluation of the compound is studied using BPS Bioscience enzyme assay kit (catalogue 60350). The PDE5A1 Assay kit is designed for identification of PDE5A1 inhibitors using fluorescence polarization. The assay is based on the binding of a fluorescent nucleotide monophosphate generated by PDE5A1 enzyme to the binding agent.
In this methodology only two simple steps on a microtiter plate are required for PDE5A1 reactions. First, the fluorescently labeled cGMP is incubated with PDE5A1 for 1 hour. Second, the binding agent is added to the reaction mixture to produce a change in fluorescent polarization that can then be measured using a fluorescence reader equipped for the measurement of fluorescence polarization.
For the assay the storage reagent FAM-Cyclic-3′, 5′-GMP (20 μM) is diluted with PDE assay buffer to achieve the solution with a […] concentration; the PDE5A1 enzyme is thawed and diluted with the PDE buffer obtaining a PDE5A1 solution at 10 pg/mL.
The assay compounds are diluted with DMSO 100% (v/v) at a concentration of 1000 μM and subsequently diluted in a Sodium chloride 0.9% solution to obtain a curve of concentrations of interest for the assay. The compounds are diluted in concentrations of: 10 nM, 30 nM, 50 nM, 100 nM, 300 nM, 500 nM, 1 μM, 3 μM, 5 μM (DMSO 10% v/v).
The study is comprised of groups: (i) substrate control; (ii) positive control (KIT); (iii) samples in several concentrations; (iv) tadalafil (comparative control). Each parameter (group) is triple labeled.
For the 4 groups there is added, to each microplate well, […] of the FAM-Cyclic-3′ reagent, 5′-GMP (200 μM).
To the substrate control group there is added, to each well, […] of vehicle (DMSO 10% v/v) and […] PDE Buffer.
To the positive control group there is added, to each well, […] of vehicle (DMSO 10% v/v).
To the tadalafil group: there is added […] of the solution in the concentrations of interest.
To the test group there is added […] of the sample solution (test compound)
OBSERVATION: the parameters tested are in triplicate.
To begin the reaction, add […] of the PDE5A1 enzyme (diluted as described above) to the microplate wells designated as Positive Control and Samples (test and tadalafil), and incubate the microplate, for 1 hour, at a temperature of 25° C.
After the incubation period, the reaction is interrupted by the addition, in all the wells, of […] of the binding agent solution and the microplate is incubated for 30 minutes, under light stirring, at room temperature. The reading of the microplate is carried out in Polarized Fluorescence (475-495 nm—excitation and 518-538 nm—emission detection) 500 nanoseconds integration time.

[1] = test system: PC3-human prostate cancer cells; assay: Antiproliferative effect in tumor cell culture (CYQuant intracellular DNA, 72 hours), PC3; type: cell-based; conditions: for % Cell Proliferation Inhibition (intracellular DNA) PC-3 (average ± E.P.M.): 72 hours
Experimental: (§1) For the execution of the assay, the compounds are diluted in DMSO 100% (v/v) at a concentration of 1000 μM and subsequently diluted in a Sodium Chloride solution 0.9% to obtain the storage solutions of interest for use in the assays. The final concentration of interest will be directly diluted in the cell culture medium. For the assay there are used the following tumor cell lineages: PC3-human prostate cancer cells; LNCAP-human prostate cancer cells; DU145-human prostate cancer; MNK45-human gastric cancer and RT4-human bladder cancer cells. The tumor cell lineages are maintained in culture according to standard procedures established by the Cell Bank of Rio de Janeiro (lineage place of origin). For the assay, the tumor cells are seeded in the concentration of 10.000 cells per well (final volume of the reaction of […]), the plate is incubated for 8 hours, for the cells to adhere to the wall of the wells. After this period, the plate is divided in groups: • (a) test group: […] of the samples were added (test compound) in the concentrations of interest; • (b) positive control group: […] of culture medium were added (100% of cell proliferation); • (c) negative control group: 200 mL of culture medium and […] of the vehicle used were added to dilute the compounds (without cells—zero proliferation); • (d) control group: […] were added of the vehicle used to dilute the compounds. This group is important to evaluate whether the vehicle used interferes in the cell proliferation. OBSERVATION: the treatment with the concentrations of samples (test compounds) and of the controls are carried out in triplicate. Incubate the plate for 72 hours in a CO2 kiln at 37° C. After the incubation period, add […]/well of the solution with DNA marker from the CYQuant Kit and incubate the plate, for 60 minutes, in a CO2 incubator at 37° C. The fluorescence intensity is determined using a fluorescence microplate reader with 485 nm excitation and 530 nm emission detection. The results obtained were normalized relative to the positive control group (100% proliferation). For the compounds there are prepared the storage solutions in the concentrations of: 100 nM, 1 μM, 3 μM, 5 μM, 10 μM and 30 μM (DMSO 10% v/v). While the final concentrations in the test are of: 10 nM, 100 nM, 300 nM, 500 nM, 1000 nM and 3000 nM (in DMSO 1% v/v).

[2] = test system: LNCAP-human prostate cancer cells; assay: Antiproliferative effect in tumor cell culture (CYQuant intracellular DNA, 72 hours), LNCAP; type: cell-based; conditions: for % Cell Proliferation Inhibition (intracellular DNA) LNCAP (average ± E.P.M.): 72 hours
Experimental: as §1

[3] = test system: DU145-human prostate cancer; assay: Antiproliferative effect in tumor cell culture (CYQuant intracellular DNA, 72 hours), DU145; type: cell-based; conditions: for % Cell Proliferation Inhibition (intracellular DNA) DU145 (average ± E.P.M.): 72 hours
Experimental: as §1

[4] = test system: MNK45-human gastric cancer; assay: Antiproliferative effect in tumor cell culture (CYQuant intracellular DNA, 72 hours), MNK45; type: cell-based
Experimental: as §1

[5] = test system: RT4-human bladder cancer cells; assay: Antiproliferative effect in tumor cell culture (CYQuant intracellular DNA, 72 hours), RT4; type: cell-based; conditions: for % Cell Proliferation Inhibition (intracellular DNA) RT4 (average ± E.P.M.): 72 hours
Experimental: as §1

- % of Inhibition (PDE5A1) (PDE5A1 enzyme; 10 nM): 0%
- concentration as from which PDE5 inhibition was observed (PDE5A1 enzyme; 10 nM to 5000 nM tested): ≥ 300 nM
- % of Inhibition (PDE5A1) (PDE5A1 enzyme; 30 nM): 0%
- % of Inhibition (PDE5A1) (PDE5A1 enzyme; 50 nM): 0%
- % of Inhibition (PDE5A1) (PDE5A1 enzyme; 100 nM): 0%
- % of Inhibition (PDE5A1) (PDE5A1 enzyme; 300 nM): 15 ± 3%
- % of Inhibition (PDE5A1) (PDE5A1 enzyme; 500 nM, 0.5 µM): 25 ± 3%
- % of Inhibition (PDE5A1) (PDE5A1 enzyme; 1000 nM, 1 µM): 55 ± 4%
- % of Inhibition (PDE5A1) (PDE5A1 enzyme; 3000 nM, 3 µM): 65 ± 2%
- % of Inhibition (PDE5A1) (PDE5A1 enzyme; 5000 nM): 78 ± 1%
Structure (SMILES): CC(CO)N1CC(=O)N2C(=C(c3c[nH]c4ccccc34)OC2c2ccc3c(c2)OCO3)C1=O (mixture of isomers) [BL-380, (R)-3-(benzo[d][1,3]dioxol-5-yl) -7-((R)-1-hydroxypropan-2-yl)-1-(1H-indole-3-yl)-6,7-dihydro-3H-oxazole[3,4-a]pyrazine-5,8-dione with (S)-3-(benzo[d][1,3]dioxol-5-yl)-7-((R)-1-hydroxypropan-2-yl)-1-(1H-indole-3-yl)-6,7-dihydro-3H-oxazole[3,4-a]pyrazine-5,8-dione]
- PDE5 inhibition, result in words (PDE5A1 enzyme; over the concentrations tested): capable of inhibiting the PDE5 in a dose-dependent manner
- % Cell Proliferation Inhibition (intracellular DNA) PC-3 (average ± E.P.M.) ([1]; 10 nM, 0.01 µM): 39 ± 6%
- % Cell Proliferation Inhibition (intracellular DNA) PC-3 (average ± E.P.M.) ([1]; 100 nM, 0.1 µM): 25 ± 5%
- % Cell Proliferation Inhibition (intracellular DNA) PC-3 (average ± E.P.M.) ([1]; 300 nM, 0.3 µM): 28 ± 2%
- % Cell Proliferation Inhibition (intracellular DNA) PC-3 (average ± E.P.M.) ([1]; 500 nM, 0.5 µM): 48 ± 6%
- % Cell Proliferation Inhibition (intracellular DNA) PC-3 (average ± E.P.M.) ([1]; 1000 nM, 1 µM): 40 ± 3%
- % Cell Proliferation Inhibition (intracellular DNA) PC-3 (average ± E.P.M.) ([1]; 3000 nM): 54 ± 4%
- antiproliferative effect, result in words ([1]; PC3 prostate cancer tumor lineage): antiproliferative effect
- % Cell Proliferation Inhibition (intracellular DNA) LNCAP (average ± E.P.M.) ([2]; 10 nM, 0.01 µM): 26 ± 10%
- % Cell Proliferation Inhibition (intracellular DNA) LNCAP (average ± E.P.M.) ([2]; 100 nM, 0.1 µM): 12 ± 3%
- % Cell Proliferation Inhibition (intracellular DNA) LNCAP (average ± E.P.M.) ([2]; 300 nM, 0.3 µM): 29 ± 6%
- % Cell Proliferation Inhibition (intracellular DNA) LNCAP (average ± E.P.M.) ([2]; 500 nM, 0.5 µM): 27 ± 2%
- % Cell Proliferation Inhibition (intracellular DNA) LNCAP (average ± E.P.M.) ([2]; 1000 nM, 1 µM): 37 ± 2%
- % Cell Proliferation Inhibition (intracellular DNA) LNCAP (average ± E.P.M.) ([2]; 3000 nM): 48 ± 6%
- antiproliferative effect, result in words ([2]; LNCAP prostate cancer tumor lineage): antiproliferative effect
- % Cell Proliferation Inhibition (intracellular DNA) DU145 (average ± E.P.M.) ([3]; 100 nM, 0.1 µM): 12 ± 4%
- % Cell Proliferation Inhibition (intracellular DNA) DU145 (average ± E.P.M.) ([3]; 300 nM, 0.3 µM): 10 ± 5%
- % Cell Proliferation Inhibition (intracellular DNA) DU145 (average ± E.P.M.) ([3]; 500 nM, 0.5 µM): 12 ± 2%
- % Cell Proliferation Inhibition (intracellular DNA) DU145 (average ± E.P.M.) ([3]; 1000 nM, 1 µM): 10 ± 3%
- % Cell Proliferation Inhibition (intracellular DNA) DU145 (average ± E.P.M.) ([3]; 3000 nM, 3 µM): 31 ± 5%
- antiproliferative effect, result in words ([3]; DU145 prostate cancer tumor lineage): antiproliferative effect
- % Cell Proliferation Inhibition (intracellular DNA) MNK45 (average ± E.P.M.) ([4]; 100 nM, 0.1 µM): 7 ± 2%
- % Cell Proliferation Inhibition (intracellular DNA) MNK45 (average ± E.P.M.) ([4]; 300 nM, 0.3 µM): 0%
- % Cell Proliferation Inhibition (intracellular DNA) MNK45 (average ± E.P.M.) ([4]; 500 nM, 0.5 µM): 0%
- % Cell Proliferation Inhibition (intracellular DNA) MNK45 (average ± E.P.M.) ([4]; 1000 nM, 1 µM): 0%
- % Cell Proliferation Inhibition (intracellular DNA) MNK45 (average ± E.P.M.) ([4]; 3000 nM, 3 µM): 16 ± 5%
- % Cell Proliferation Inhibition (intracellular DNA) RT4 (average ± E.P.M.) ([5]; 100 nM, 0.1 µM): 8 ± 6%
- % Cell Proliferation Inhibition (intracellular DNA) RT4 (average ± E.P.M.) ([5]; 300 nM, 0.3 µM): 5 ± 5%
- % Cell Proliferation Inhibition (intracellular DNA) RT4 (average ± E.P.M.) ([5]; 500 nM, 0.5 µM): 3 ± 5%
- % Cell Proliferation Inhibition (intracellular DNA) RT4 (average ± E.P.M.) ([5]; 1000 nM, 1 µM): 3 ± 1%
- % Cell Proliferation Inhibition (intracellular DNA) RT4 (average ± E.P.M.) ([5]; 3000 nM, 3 µM): 58 ± 4%
- antiproliferative effect, result in words ([5]; RT4 bladder cancer tumor lineage): antiproliferative effect
